The values that follow come from patent publication US9050345B2, “Pyrrolotriazines as potassium ion channel inhibitors” (BRISTOL-MYERS SQUIBB COMPANY, priority 2013, dated 2015).

In the first assay the target is T1, human KV 1.5 (IKur) (Homo sapiens, UniProt P22460).
T1 construct: expressed in transfected cells
T1 sequence (P22460 whole entry): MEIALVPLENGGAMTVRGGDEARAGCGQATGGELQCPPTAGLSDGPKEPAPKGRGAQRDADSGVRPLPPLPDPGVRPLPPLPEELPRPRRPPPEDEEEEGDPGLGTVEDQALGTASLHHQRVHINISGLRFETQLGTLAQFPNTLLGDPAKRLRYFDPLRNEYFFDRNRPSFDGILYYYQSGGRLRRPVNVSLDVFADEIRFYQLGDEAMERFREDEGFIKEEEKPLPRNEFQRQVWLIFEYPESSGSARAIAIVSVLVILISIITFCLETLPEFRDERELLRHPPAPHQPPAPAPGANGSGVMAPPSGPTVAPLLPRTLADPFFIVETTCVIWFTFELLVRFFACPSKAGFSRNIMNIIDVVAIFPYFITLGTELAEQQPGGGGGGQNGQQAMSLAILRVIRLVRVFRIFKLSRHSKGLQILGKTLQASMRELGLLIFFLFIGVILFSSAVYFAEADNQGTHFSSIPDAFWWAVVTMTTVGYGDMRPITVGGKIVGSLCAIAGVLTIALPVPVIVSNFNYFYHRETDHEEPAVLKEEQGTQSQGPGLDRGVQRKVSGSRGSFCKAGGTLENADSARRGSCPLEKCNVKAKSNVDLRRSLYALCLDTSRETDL
As to the kind of experiment: block of IKur current in patch clamped L-929 cells expressing human Kv1.5. The assay is classed as cell-based. As to conditions: 0.3 μM; patch clamped mammalian L-929 cells stably expressing human Kv1.5. The text has this:
Assays to determine the degree of activity of a compound as an IKur inhibitor are well known in the art and are described in references such as J. Gen. Physiol., 101(4):513-543 (April 1993), and Br. J. Pharmacol., 115(2):267-274 (May 1995).
Synders, D. J. et al., “A rapidly activating and slowly inactivating potassium channel cloned from human heart: functional analysis after stable mammalian cell culture expression”, J. Gen. Physiol., 101:513-543 (1993). • 2. Zhou, Z. et al., “Block of HERG potassium channels by the antihistamine astemizole and its metabolites desmethylastemizole and norastemizole”, J. Cardiovasc. Electrophysiol., 10(6):836-843 (1999).
In general terms: In patch-clamp work, channel activity is measured electrically.
Regarding `NS(=O)(=O)c1cncc(-c2nc(NC(CO)c3ccccn3)c3c(-c4ccccc4)ccn3n2)c1` (stereo not shown) [Example 33, 5-(4-((2-Hydroxy-1-(pyridin-2-yl)ethyl)amino)-5-phenylpyrrolo[2,1-f][1,2,4]triazin-2-yl)pyridine-3-sulfonamide], the “KV1_5% Inh L929 @0.3 μM” value turned out to be 95.01%.
The same measure, in the same setting: as for `NS(=O)(=O)CCc1cncc(-c2nc(NCc3ccccn3)c3c(-c4ccccc4)ccn3n2)c1` [Example 38, 2-(5-(5-Phenyl-4-(pyridin-2-ylmethylamino)pyrrolo[1,2-f][1,2,4]triazin-2-yl)pyridin-3-yl)ethanesulfonamide], the figure is 97.45%.

Staying with this assay, now noted: L929, 0.3 μM; patch clamped mammalian L-929 cells stably expressing human Kv1.5; read-out: KV1_5% Inh L929 @0.3 μM.
As for `NC(=O)C(=O)Nc1cncc(-c2nc(NCc3ccccn3)c3c(-c4ccccc4)ccn3n2)c1` [Example 31, N1-(5-(5-Phenyl-4-(pyridin-2-ylmethylamino)pyrrolo[1,2-f][1,2,4]triazin-2-yl)pyridin-3-yl)oxalamide], the inhibition at 0.3 µM was found to be 98.6%.
Still for that read-out and setting: with `Cc1nc(CNc2nc(-c3cncc(S(N)(=O)=O)c3)nn3ccc(-c4ccccc4)c23)cs1` [Example 32, 5-(4-((2-Methylthiazol-4-yl)methylamino)-5-phenylpyrrolo[1,2-f][1,2,4]triazin-2-yl)pyridine-3-sulfonamide] the figure was 99.3%.
On the same count and under the same terms, with `NS(=O)(=O)c1cncc(-c2nc(NC(CO)c3ccccn3)c3c(-c4ccccc4)ccn3n2)c1` (stereo not shown) [Example 33, 5-(4-((2-Hydroxy-1-(pyridin-2-yl)ethyl)amino)-5-phenylpyrrolo[2,1-f][1,2,4]triazin-2-yl)pyridine-3-sulfonamide] the figure was 87.8%; with `CC(C)(C)OC(=O)NC1(c2nc(NCc3ccccn3)c3c(-c4ccccc4)ccn3n2)CC1` [Example 34, tert-Butyl 1-(5-phenyl-4-(pyridin-2-ylmethylamino)pyrrolo[1,2-f][1,2,4]triazin-2-yl)cyclopropylcarbamate], 97.3%.
Turning to `COC(=O)NC1(c2nc(NCc3ccccn3)c3c(-c4ccccc4)ccn3n2)CC1` [Example 35, Methyl 1-(5-phenyl-4-(pyridin-2-ylmethylamino)pyrrolo[1,2-f][1,2,4]triazin-2-yl)cyclopropylcarbamate], the inhibition at 0.3 µM came to 92.8%.
Same read-out and setting: with `CC(=O)NC1(c2nc(NCc3ccccn3)c3c(-c4ccccc4)ccn3n2)CC1` [Example 36, N-(1-(5-Phenyl-4-(pyridin-2-ylmethylamino)pyrrolo[1,2-f][1,2,4]triazin-2-yl)cyclopropyl)acetamide] the figure was 46%; with `CS(=O)(=O)NC1(c2nc(NCc3ccccn3)c3c(-c4ccccc4)ccn3n2)CC1` [Example 37, N-(1-(5-Phenyl-4-(pyridin-2-ylmethylamino)pyrrolo[1,2-f][1,2,4]triazin-2-yl)cyclopropyl)methanesulfonamide], 98.6%.
For the compound `NS(=O)(=O)c1cc(-c2nc(NCc3ccccn3)c3c(-c4ccccc4)ccn3n2)cnc1C(F)F` [Example 39, 2-(Difluoromethyl)-5-(5-phenyl-4-(pyridin-2-ylmethylamino)pyrrolo[1,2-f][1,2,4]triazin-2-yl)pyridine-3-sulfonamide], the inhibition at 0.3 µM was found to be 97.1%.
On the same count and under the same terms, as for `COc1ncc(-c2nc(N3Cc4cccnc4C3)c3c(-c4ccccc4)ccn3n2)cc1S(N)(=O)=O` [Example 40, 2-Methoxy-5-(5-phenyl-4-(5H-pyrrolo[3,4-b]pyridin-6(7H)-yl)pyrrolo[1,2-f][1,2,4]triazin-2-yl)pyridine-3-sulfonamide], the figure is 40.4%.
With `CC(C)Oc1ncc(-c2nc(NCc3ccccn3)c3c(-c4ccccc4)ccn3n2)cc1S(N)(=O)=O` [Example 41, 2-Isopropoxy-5-(5-phenyl-4-((pyridin-2-ylmethyl)amino)pyrrolo[2,1-f][1,2,4]triazin-2-yl)pyridine-3-sulfonamide], the inhibition at 0.3 µM stood at 95.1%.
On the same count and under the same terms, with `CC(=O)Nc1cncc(-c2nc(NCc3ccccn3)c3c(-c4ccccc4)ccn3n2)n1` [Example 42, N-(6-(5-Phenyl-4-(pyridin-2-ylmethylamino)pyrrolo[1,2-f][1,2,4]triazin-2-yl)pyrazin-2-yl)acetamide] the figure was 99.4%.
Same read-out and setting: with `COC(=O)C(CS(N)(=O)=O)NC(=O)c1cncc(-c2nc(NCc3ccccc3)c3c(-c4ccccc4)ccn3n2)c1` (stereo not shown) [Example 45, Methyl 2-(5-(4-(benzylamino)-5-phenylpyrrolo[2,1-f][1,2,4]triazin-2-yl)nicotinamido)-3-sulfamoylpropanoate] the figure was 90.1%; with `CC(=O)Nc1cncc(-c2nc(NCc3ccccn3)c3c(-c4ccccc4)ccn3n2)c1` [Example 47, N-(5-(5-phenyl-4-(pyridin-2-ylmethylamino)pyrrolo[1,2-f][1,2,4]triazin-2-yl)pyridin-3-yl)acetamide], 94.8%.
Still for that read-out and setting: with `CC(=O)Nc1cccc(-c2nc(NCc3ccccn3)c3c(-c4ccccc4)ccn3n2)c1` [Example 48, N-(3-(5-phenyl-4-(pyridin-2-ylmethylamino)pyrrolo[1,2-f][1,2,4]triazin-2-yl)phenyl) acetamide] the figure was 96.6%; with `NS(=O)(=O)c1cc(-c2nc(NCc3ccccn3)c3c(-c4ccccc4)ccn3n2)cnc1O` [Example 49, 2-hydroxy-5-(5-phenyl-4-(pyridin-2-ylmethylamino)pyrrolo[1,2-f][1,2,4]triazin-2-yl)pyridine-3-sulfonamide], 84.9%; with `NS(=O)(=O)Nc1cccc(-c2nc(NCc3ccccn3)c3c(-c4ccccc4)ccn3n2)c1` [Example 50], 97.8%.
For `CCOC(=O)CS(=O)(=O)Nc1cncc(-c2nc(NCc3ccccn3)c3c(-c4ccccc4)ccn3n2)c1` [Example 51, ethyl 2-(N-(5-(5-phenyl-4-(pyridin-2-ylmethylamino)pyrrolo[1,2-f][1,2,4]triazin-2-yl)pyridin-3-yl)sulfamoyl)acetate], the inhibition at 0.3 µM is 88.2%.
The same measure, in the same setting: with `NC(=O)CC(=O)Nc1cncc(-c2nc(NCc3ccccn3)c3c(-c4ccccc4)ccn3n2)c1` [Example 52, N1-(5-(5-phenyl-4-(pyridin-2-ylmethylamino)pyrrolo[1,2-f][1,2,4]triazin-2-yl)pyridin-3-yl)malonamide] the figure was 96.1%; with `CC(=O)Nc1ccccc1-c1nc(NCc2ccccn2)c2c(-c3ccccc3)ccn2n1` [Example 53, N-(2-(5-phenyl-4-(pyridin-2-ylmethylamino)pyrrolo[1,2-f][1,2,4]triazin-2-yl)phenyl) acetamide], 98.1%; with `CC(=O)Nc1ccc(-c2nc(NCc3ccccn3)c3c(-c4ccccc4)ccn3n2)cn1` [Example 54, N-(5-(5-phenyl-4-(pyridin-2-ylmethylamino)pyrrolo[1,2-f][1,2,4]triazin-2-yl)pyridin-2-yl)acetamide], 90.2%.
As for `NC(=O)CS(=O)(=O)Nc1cncc(-c2nc(NCc3ccccn3)c3c(-c4ccccc4)ccn3n2)c1` [Example 55, 2-(N-(5-(5-phenyl-4-(pyridin-2-ylmethylamino)pyrrolo[1,2-f][1,2,4]triazin-2-yl)pyridin-3-yl)sulfamoyl)acetamide], the inhibition at 0.3 µM stood at 20.6%.
The same measure, in the same setting: with `O=S(=O)(Nc1cncc(-c2nc(NCc3ccccn3)c3c(-c4ccccc4)ccn3n2)c1)C1CC1` [Example 56, N-(5-(5-phenyl-4-(pyridin-2-ylmethylamino)pyrrolo[1,2-f][1,2,4]triazin-2-yl)pyridin-3-yl) cyclopropanesulfonamide] the figure was 93.8%; with `CCCS(=O)(=O)Nc1cncc(-c2nc(NCc3ccccn3)c3c(-c4ccccc4)ccn3n2)c1` [Example 57, N-(5-(5-phenyl-4-(pyridin-2-ylmethylamino)pyrrolo[1,2-f][1,2,4]triazin-2-yl)pyridin-3-yl) propane-1-sulfonamide], 95.5%.
